According to patent US6960610B2, “Use of glycogen phosphorylase inhibitors for treatment of cardiovascular diseases” (Novo Nordick, A/S, priority 2002, dated 2005):

Assays:
[1] = tested on: Rabbits (myocardial infarct); assay: Anaesthetised rabbit model of myocardial infarction induced by transient coronary artery occlusion; type: in vivo; conditions: 10 mg/kg b.i.d.; left coronary artery ligated 30 min, reperfusion 2 hours
Experimental: Method: Rabbits were anaesthetized and mechanically ventilated with oxygen enriched air. A thoracotomy was performed and an infarct was produced by ligating the left coronary artery for 30 min. After 30 min. the heart was reperfused for 2 hours. The heart was excited and reperfused in Langendorff mode. The coronary artery was reoccluded and the heart was perfused with ink to delineate the area at risk. The heart was removed and cut into 2 mm slices and stained with triphenyl tetrazolium chloride. The area at risk and the infarct size was determined by planimetry.

[2] = tested on: isolated perfused rabbit hearts; assay: Ischemia induced arrhythmia in the isolated perfused rabbit heart (Langendorff); conditions: 0.4 μg/ml, n=7
Experimental: The model evaluates the effect of a test compound on ischemia induced arrhythmia in isolated perfused rabbit hearts. The hearts were excised from rabbits and perfused via an aortic canula in a Langendorff set-up equipped with ECG and MAP electrodes. Global normotherm ischemia was induced by turning off the perfusion for 30 min. After 30 min the heart was reperfused and the total duration of arrhythmia was determined. Furthermore, ECG and surface monophasic action potentials (MAPS) were scored to describe the severity of ischemic damage.

heart tissue glycogen = assay: Glycogen content of heart tissue following global ischemia; conditions: in the presence of 0.4 μg/ml compound
Experimental: Method: The glycogen contents of freeze-clamped heart samples were determined enzymatically as μmol of glycosyl units per gram wet weight after boiling the tissue in 0.4 N KOH and subsequent degradation of glycogen with amyloglycosidase

Structure (SMILES): OC[C@H]1NC[C@@H](O)[C@@H]1O [(2R,3R,4R)-3,4dihydroxy-2-hydroxymethylpyrrolidine]
- reduction of infarct size compared to untreated rabbits [1]: 45%
- MAP score ([2]; 30 min global ischemia, reperfusion, without compound 2.3±0.3): 0.9±0.1
- ECG score ([2]; 30 min global ischemia, reperfusion, without compound 2.4±0.2): 0.7±0.3
- average arrhythmia length following reperfusion ([2]; 30 min global normotherm ischemia, then reperfusion, without compound 18.0±5.6): 0.0 ± 0.0 min
- glycogen content before ischemia (heart tissue glycogen; starting value): 16.9±1.5 glycosyl units/g wet weight
- glycogen content after 30 min. of global ischemia (heart tissue glycogen; without compound 2.6±0.8): 6.9±1.1 glycosyl units/g wet weight
